The values below come from patent US20240199546A1, “INHIBITORS OF SOLUTE CARRIER FAMILY 6A MEMBER 19 (SLC6A19) AND METHODS OF USE THEREOF” (Maze Therapeutics, Inc., priority 2022, published 2024).

Structures are written as SMILES.

The IC50 is the concentration needed to halve the response being measured.

The experiment concerns the target T1, human SLC6A19 and TMEM27 (Homo sapiens, UniProt Q695T7).
T1 construct: expressed in transfected cells
T1 sequence (Q695T7 1-634): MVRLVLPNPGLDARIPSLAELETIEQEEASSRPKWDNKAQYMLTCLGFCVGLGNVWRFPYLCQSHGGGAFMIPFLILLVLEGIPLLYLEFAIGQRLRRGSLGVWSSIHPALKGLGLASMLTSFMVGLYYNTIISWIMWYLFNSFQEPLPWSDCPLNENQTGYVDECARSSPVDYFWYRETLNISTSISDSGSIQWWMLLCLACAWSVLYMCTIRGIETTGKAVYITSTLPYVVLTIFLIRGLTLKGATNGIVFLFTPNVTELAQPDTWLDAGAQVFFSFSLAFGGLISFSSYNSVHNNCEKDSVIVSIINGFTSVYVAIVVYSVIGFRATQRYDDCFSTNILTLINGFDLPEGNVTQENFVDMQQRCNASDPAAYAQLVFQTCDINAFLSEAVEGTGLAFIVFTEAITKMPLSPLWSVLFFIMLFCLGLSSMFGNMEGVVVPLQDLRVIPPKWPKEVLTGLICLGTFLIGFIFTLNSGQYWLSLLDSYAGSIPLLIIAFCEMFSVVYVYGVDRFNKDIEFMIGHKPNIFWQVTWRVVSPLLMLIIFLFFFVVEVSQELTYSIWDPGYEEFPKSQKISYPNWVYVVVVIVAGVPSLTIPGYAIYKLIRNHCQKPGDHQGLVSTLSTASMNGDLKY
T1 sequence (Q9HBJ8 15-222 partner): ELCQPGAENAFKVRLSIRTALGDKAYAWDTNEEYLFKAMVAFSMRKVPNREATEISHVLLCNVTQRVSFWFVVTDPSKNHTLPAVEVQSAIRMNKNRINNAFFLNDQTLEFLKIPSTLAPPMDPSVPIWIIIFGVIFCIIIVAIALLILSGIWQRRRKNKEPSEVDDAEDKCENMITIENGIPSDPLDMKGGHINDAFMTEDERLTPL
The experiment can be described thus: Radiolabelled (3H) leucine uptake in CHO cells with doxycycline-inducible expression of human SLC6A19 and TMEM27 (Example B-1). The experiment is classed as cell-based. To be noted: CHO cells with doxycycline-inducible expression of human SLC6A19 and TMEM27, read-out: SLC6A19_Radioligand Uptake Assay IC50. An outline of the steps: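 CHO cells were induced with doxycycline for 18 h at 37 °C, washed in HBSS, then exposed to compounds for 1 h: 8-point, 3-fold dilutions in duplicate, 0.5% DMSO final. Uptake measured by scintillation counting after 2 h shaking. Activity normalized with positive control as 0% and DMSO as 100%.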
With `O=C(NCc1cc2cc(F)c(OCc3ccon3)cc2[nH]1)N1CCCC1` [Compound 116, N-((5-fluoro-6-(isoxazol-3-ylmethoxy)-1H-indol-2-yl)methyl)pyrrolidine-1-carboxamide], the IC50 worked out at 157 nM. The same measure for `Cc1cc(COc2cc3[nH]c(CNC(=O)N4CCCC4)cc3cc2F)no1` [Compound 117, N-((5-fluoro-6-((5-methylisoxazol-3-yl)methoxy)-1H-indol-2-yl)methyl)pyrrolidine-1-carboxamide]: 267 nM; for `Cc1cc(COc2cc3[nH]c(CNC(=O)N4CCCC4)cc3cc2F)on1` [Compound 118, N-((5-fluoro-6-((3-methylisoxazol-5-yl)methoxy)-1H-indol-2-yl)methyl)pyrrolidine-1-carboxamide]: 1110 nM. Turning to `Cc1cnc(COc2cc3[nH]c(CNC(=O)N4CCCC4)cc3cc2Cl)o1` [Compound 120, N-((5-chloro-6-((5-methyloxazol-2-yl)methoxy)-1H-indol-2-yl)methyl)pyrrolidine-1-carboxamide], the IC50 stood at 375 nM. For the compound `O=C(NCc1cc2cc(F)c(OCc3cscn3)cc2[nH]1)C1(C(F)(F)F)CC1` [Compound 127, N-((5-fluoro-6-(thiazol-4-ylmethoxy)-1H-indol-2-yl)methyl)-1-(trifluoromethyl)cyclopropane-1-carboxamide], the IC50 is 98 nM. To `CCC(=O)NCc1cc2cc(F)c(OCc3ccon3)cc2[nH]1` [Compound 137, N-((5-fluoro-6-(isoxazol-3-ylmethoxy)-1H-indol-2-yl)methyl)propionamide] belongs 183 nM. Consider `CC(C)C(=O)NCc1cc2cc(F)c(OCc3ccon3)cc2[nH]1` [Compound 138, N-((5-fluoro-6-(isoxazol-3-ylmethoxy)-1H-indol-2-yl)methyl)isobutyramide], for which the IC50 stood at 353 nM. Take `O=C(NCc1cc2cc(F)c(OCc3ccon3)cc2[nH]1)C1(C(F)(F)F)CC1` [Compound 139, N-((5-fluoro-6-(isoxazol-3-ylmethoxy)-1H-indol-2-yl)methyl)-1-(trifluoromethyl)cyclopropane-1-carboxamide]: the half-inhibitory concentration (IC50) was determined as 310 nM.

`O=C(NCc1cc2cc(F)c(OCc3ccon3)cc2[nH]1)C1CC1` [Compound 140, N-((5-fluoro-6-(isoxazol-3-ylmethoxy)-1H-indol-2-yl)methyl)cyclopropanecarboxamide]: the IC50 came to 148 nM. Take `CC(=O)NCc1cc2cc(Cl)c(OCc3cscn3)cc2[nH]1` [Compound 141, N-((5-chloro-6-(thiazol-4-ylmethoxy)-1H-indol-2-yl)methyl)acetamide]: the IC50 was 87 nM. Turning to `CC(=O)NCc1cc2cc(Cl)c(OCc3cc(C)on3)cc2[nH]1` [Compound 142, N-((5-chloro-6-((5-methylisoxazol-3-yl)methoxy)-1H-indol-2-yl)methyl)acetamide], the IC50 came to 69 nM. The same measure for `CC(=O)NCc1cc2cc(Cl)c(OCc3ccon3)cc2[nH]1` [Compound 143, N-((5-chloro-6-(isoxazol-3-ylmethoxy)-1H-indol-2-yl)methyl)acetamide]: 182 nM. To `O=C(NCc1cc2cc(Cl)c(OCc3cscn3)cc2[nH]1)C1(C(F)(F)F)CC1` [Compound 144, N-((5-chloro-6-(thiazol-4-ylmethoxy)-1H-indol-2-yl)methyl)-1-(trifluoromethyl)cyclopropane-1-carboxamide] belongs 119 nM; to `Cc1cc(CC(C)c2ccc3cc(CNC(=O)C4(C)CC4)[nH]c3c2)no1` (stereo not drawn) [Compound 153, 1-methyl-N-((6-(1-(5-methylisoxazol-3-yl)propan-2-yl)-1H-indol-2-yl)methyl) cyclopropane-1-carboxamide], 1960 nM. Turning to `CCc1cc(COc2ccc3cc(CNC(=O)C4(C)CC4)[nH]c3c2)no1` [Compound 185, N-((6-((5-ethylisoxazol-3-yl)methoxy)-1H-indol-2-yl)methyl)-1-methylcyclopropane-1-carboxamide], the IC50 was determined as 1050 nM.
